System: morphine tolerant mice
Test: Opiate tolerance test (hot plate) in the mouse
Assay type: in vivo
Conditions: for foot-licking latency, change as compared with animals receiving morphine from Day 1 to Day 6: morphine 32 mg/kg i.p. twice daily Day 1 to Day 6, hot plate 54° C.
Protocol: The method, which detects tolerance to analgesic activity, follows that described by Fernandes et al (Naunyn-Schmiedeberg's Arch. Pharmacol., 297, 53-60, 1977).
Mice were placed onto a hot metal plate maintained at 54° C. surrounded by a Plexiglas cylinder (height: 13 cm; diameter: 19 cm) (Bioseb: model PE34). The latency to the first foot-lick was measured (maximum: 30 seconds). Morphine (32 mg/kg i.p.) or vehicle were administered twice daily for 6 days (at about 9:00 and 15:00), and then administered with morphine 8 mg/kg i.p. (or saline) 30 minutes before the test on Day 7 to assess morphine tolerance.
The test substances were each evaluated at 3 doses (1, 3 and 10 mg/kg for Compound (I) and 0.3, 1 and 3 mg/kg for Compound (II), administered in morphine tolerant mice p.o. acutely 60 minutes before the test on Day 7. The experiment included appropriate control groups to assess the potential effects of the test substances on morphine tolerance. Compound (III) was evaluated at 1 dose (10 mg/kg), administered under the same experimental conditions and was used as comparison substance.
10 mice were studied per group. The test was performed blind. Data were analysed by comparing treated groups with appropriate controls using unpaired Student's t tests.

[1] = 10 mg/kg p.o. acutely 60 minutes before the test on Day 7
[2] = 1 mg/kg p.o. acutely 60 minutes before the test on Day 7
[3] = 3 mg/kg p.o. acutely 60 minutes before the test on Day 7

SMILES | expression of morphine tolerance (conclusion) (10 mg/kg p.o. acutely) | foot-licking latency, change as compared with animals receiving morphine from Day 1 to Day 6 [1] | foot-licking latency, change as compared with animals receiving morphine from Day 1 to Day 6 (0.3 mg/kg p.o. acutely 60 minutes before the test on Day 7) | foot-licking latency, change as compared with animals receiving morphine from Day 1 to Day 6 [2] | expression of morphine tolerance (conclusion) (3 mg/kg p.o. acutely) | foot-licking latency, change as compared with animals receiving morphine from Day 1 to Day 6 [3] | expression of morphine tolerance (conclusion) (1 mg/kg p.o. acutely)
Cc1cccc(C#Cc2ccccc2)n1 [Compound (III), 2-methyl-6-(phenylethynyl)pyridine, reference compound] | significantly decrease the expression of morphine tolerance | +32% | – | – | – | – | –
COCc1cn(C2=NCC(=O)N3CCc4c(ccc(F)c4C4CC4)C3=C2)cn1 [Compound (II), 9-cyclopropyl-10-fluoro-2-(4-(methoxymethyl)-1H-imidazol-1-yl)-7,8-dihydro-[1,4]diazepino[7,1-a]isoquinolin-5(4H)-one] | – | – | no effects | +37% | significantly decrease the expression of morphine tolerance | +38% | –
COC(=O)N1CC[C@@H]2[C@H]1CCC[C@@]2(O)C#Cc1cccc(C)c1 [Compound (I), (−)-(3aR,4S,7aR)-4-Hydroxy-4-m-tolylethynyl-octahydro-indole-1-carboxylic acid methyl ester] | – | no significant effects | – | +44% | – | no significant effects | significantly decrease the expression of morphine tolerance

Reference: patent US20220175793A1, “THE USE OF AN MGLUR5 ANTAGONIST FOR TREATING OPIOID ANALGESIC TOLERANCE” (NOVARTIS AG, priority 2019, published 2022)
